The test system of the assay is Lymphosarcoma Mecca ip in C3AKF1 mice, survival T/C%. Description: NCI In Vivo Anticancer Drug Screen. Data for tumor model Lymphosarcoma Mecca (intraperitoneal) in C3AKF1 (CHKRF1) mice. Particulars: endpoint: survival time, mean or median, higher = longer survival. The procedure: The antitumor activity of compounds was measured in mice bearing transplantable tumors. Survival or tumor size were measured and the results are expressed as the measurement made in the treated group (T) divided by the measurement made in the vehicle treated control group (C). The tumor model used in this assay is Lymphosarcoma Mecca (intraperitoneal) in C3AKF1 (CHKRF1) mice

Where [1] appears, read: dose: 12.5 mg/kg/injection, schedule: Q01DX010 (sc), vehicle: steriod suspending solution.
Where [2] appears, read: dose: 25.0 mg/kg/injection, schedule: Q01DX010 (sc), vehicle: steriod suspending solution.
[3] abbreviates: dose: 50.0 mg/kg/injection, schedule: Q01DX010 (sc), vehicle: steriod suspending solution.
Where [4] appears, read: dose: 100.0 mg/kg/injection, schedule: Q01DX010 (sc), vehicle: steriod suspending solution.
Where [5] appears, read: dose: 0.5 mg/kg/injection, schedule: Q01DX010 (ip), vehicle: saline.
Setting [6] is: dose: 1.0 mg/kg/injection, schedule: Q01DX010 (ip), vehicle: saline.
Setting [7] is: dose: 2.0 mg/kg/injection, schedule: Q01DX010 (ip), vehicle: saline.
Where [8] appears, read: dose: 4.0 mg/kg/injection, schedule: Q01DX010 (ip), vehicle: saline.
[9] abbreviates: dose: 8.0 mg/kg/injection, schedule: Q01DX010 (ip), vehicle: saline.
The mark [10] stands for this setting: dose: 2.5 mg/kg/injection, schedule: Q01DX010 (ip), vehicle: saline.
[11] abbreviates: dose: 5.0 mg/kg/injection, schedule: Q01DX010 (ip), vehicle: saline.
Setting [12] is: dose: 20.0 mg/kg/injection, schedule: Q01DX010 (ip), vehicle: saline.
The mark [13] stands for this setting: dose: 50.0 mg/kg/injection, schedule: Q01DX010 (ip), vehicle: saline.
Setting [14] is: dose: 100.0 mg/kg/injection, schedule: Q01DX010 (ip), vehicle: saline.
[15] abbreviates: dose: 200.0 mg/kg/injection, schedule: Q01DX010 (ip), vehicle: saline.
Setting [16] is: dose: 400.0 mg/kg/injection, schedule: Q01DX010 (ip), vehicle: saline.
[17] abbreviates: dose: 10.0 mg/kg/injection, schedule: Q01DX010 (ip), vehicle: saline.
[18] abbreviates: dose: 25.0 mg/kg/injection, schedule: Q01DX010 (ip), vehicle: saline.
Setting [19] is: dose: 6.25 mg/kg/injection, schedule: Q01DX010 (ip), vehicle: saline.
[20] abbreviates: dose: 12.5 mg/kg/injection, schedule: Q01DX010 (ip), vehicle: saline.
Setting [21] is: dose: 16.0 mg/kg/injection, schedule: Q01DX010 (ip), vehicle: saline.
Where [22] appears, read: dose: 6.0 mg/kg/injection, schedule: Q01DX010 (ip), vehicle: saline.
[23] abbreviates: dose: 12.0 mg/kg/injection, schedule: Q01DX010 (ip), vehicle: saline.
[24] abbreviates: dose: 0.13 mg/kg/injection, schedule: Q01DX010 (ip), vehicle: saline.

Several values for one entry are separate records, joined by “and”; a condition that tells them apart may be missing. Equal values may be shown once. Inconclusive results and toxic doses are left out. Starred links: 1 amine or outer side, 2 acyl side, 3 side chain; linkers in the order of their positions; H or OH if unused. Positions of bridges follow the written chain, without caps; N, C: chain ends. Non-standard residues stand in square brackets, D forms with d. Residues, ends and D or L forms follow the SMILES beside them. Chains are numbered I, II in the order given. Actinocin(9to1) = Cc1c2oc3c(C)ccc(C(=O)[*:1])c3nc-2c(C(=O)[*:2])c(N)c1=O; aThr = C[C@H](O)[C@H](N)C(=O)O; NMeV = CN[C@H](C(=O)O)C(C)C; Sar = CNCC(=O)O

As to `C[C@]12C=CC(=O)C=C1CC[C@@H]1[C@@H]2[C@@H](O)C[C@@]2(C)[C@H]1CC[C@]2(O)C(=O)CO`, the T/C runs as follows: under setting [1], 86 % of control; under setting [2], 100 % of control; under setting [3], 160 % of control; under setting [4], 115 % of control.
Take `Nc1nc(F)nc2c1ncn2C1OC(CO)C(O)C1O` (stereo unspecified): the T/C by setting is: under setting [5], 100 % of control; under setting [6], 90 % of control and 105 % of control; under setting [7], 90 % of control and 100 % of control; under setting [8], 100 % of control; under setting [9], 100 % of control.
For `O=c1[nH]cc(F)c(=O)[nH]1`, the T/C under setting [10] was 100 % of control, the T/C under setting [11] was 110 % of control and the T/C under setting [12] was 155 % of control.
On to `CCCSc1ncnc2nc[nH]c12`, for which the T/C (dose: 31.3 mg/kg/injection, schedule: Q01DX010 (ip), vehicle: saline) was 105 % of control and 111 % of control; the T/C (dose: 62.5 mg/kg/injection, schedule: Q01DX010 (ip), vehicle: saline) was 105 % of control and 111 % of control; the T/C (dose: 125.0 mg/kg/injection, schedule: Q01DX010 (ip), vehicle: saline) was 105 % of control; the T/C (dose: 250.0 mg/kg/injection, schedule: Q01DX010 (ip), vehicle: saline) was 88 % of control.
In the case of `Nc1nc(=O)n(C2CC(O)C(CO)O2)cc1Br` (stereo unspecified), the T/C is 100 % of control under setting [13]; 100 % of control and 105 % of control under setting [14]; 100 % of control and 111 % of control under setting [15]; 90 % of control and 94 % of control under setting [16]; 88 % of control (dose: 800.0 mg/kg/injection, schedule: Q01DX010 (ip), vehicle: saline).
For `Cc1c2oc3c(C)ccc(C(=O)N[C@@H]4C(=O)N[C@H](C(C)C)C(=O)N5CCC[C@H]5C(=O)N(C)CC(=O)N(C)[C@@H](C(C)C)C(=O)O[C@H]4C)c3nc-2c(C(=O)N[C@@H]2C(=O)N[C@H](C(C)C)C(=O)N3CCC[C@H]3C(=O)N(C)CC(=O)N(C)[C@@H](C(C)C)C(=O)O[C@H]2C)c(N)c1=O` (I: [aThr][dV]P[Sar][NMeV] / II: [aThr][dV]P[Sar][NMeV]; ester I:1-I:C, II:1-II:C; linker I:N-II:N via Actinocin(9to1)), the T/C reads like this: (dose: 13.0 micrograms/kg/injection, schedule: Q01DX010 (ip), vehicle: acid diluted with saline) 183 % of control; (dose: 25.0 micrograms/kg/injection, schedule: Q01DX010 (ip), vehicle: acid diluted with saline) 103 % of control; (dose: 50.0 micrograms/kg/injection, schedule: Q01DX010 (ip), vehicle: acid diluted with saline) 123 % of control.
For `CC1CN1P(=S)(N1CC1C)N1CC1C` (stereo unspecified), the T/C reads like this: (dose: 1.25 mg/kg/injection, schedule: Q01DX010 (ip), vehicle: saline) 100 % of control; under setting [10], 100 % of control and 105 % of control; under setting [11], 100 % of control; under setting [17], 100 % of control and 105 % of control; under setting [12], 100 % of control.
As for `OC(CBr)C(O)C(O)C(O)CBr` (stereo unspecified), the T/C was 100 % of control under setting [18]; 100 % of control under setting [13]; 100 % of control and 110 % of control under setting [14]; 89 % of control under setting [15]; 115 % of control under setting [16].
In the case of `S=P(N1CC1)(N1CC1)N1CC1`, the T/C is, setting by setting: under setting [6], 270 % of control; under setting [7], 90 % of control; under setting [8], 109 % of control.
On to `N=[N+]=CC(=O)OCC(N)C(=O)O` (stereo unspecified), for which the T/C was 120 % of control and 124 % of control (dose: 3.13 mg/kg/injection, schedule: Q01DX010 (ip), vehicle: saline); 100 % of control under setting [19]; 116 % of control under setting [20]; 105 % of control under setting [18].
On to `CS(=O)(=O)OCCC(=O)N1CCN(C(=O)CCOS(C)(=O)=O)CC1`, for which the T/C by setting is: under setting [20], 120 % of control; under setting [18], 105 % of control and 110 % of control; under setting [14], 160 % of control.
Take `O[C@H](CN1CC1)[C@@H](O)CN1CC1`: the T/C is 175 % of control (dose: 62.5 micrograms/kg/injection, schedule: Q01DX010 (ip), vehicle: saline); 210 % of control and 235 % of control (dose: 125.0 micrograms/kg/injection, schedule: Q01DX010 (ip), vehicle: saline); 235 % of control and 300 % of control (dose: 250.0 micrograms/kg/injection, schedule: Q01DX010 (ip), vehicle: saline); 105 % of control (dose: 500.0 micrograms/kg/injection, schedule: Q01DX010 (ip), vehicle: saline).
As for `COC1C(OC(=O)/C=C/C=C/C=C/C=C/C(=O)O)CCC2(CO2)C1C1(C)OC1CC=C(C)C` (stereo unspecified), the T/C is 100 % of control under setting [18]; 100 % of control and 110 % of control under setting [13]; 100 % of control and 104 % of control under setting [14]; 90 % of control under setting [15].
For the compound `CC(=O)O[C@]1(C(C)=O)CC[C@H]2[C@@H]3C[C@H](C)C4=CC(=O)C=C[C@]4(C)[C@@]3(F)[C@@H](O)C[C@@]21C`, the T/C reads like this: under setting [1], 105 % of control; under setting [2], 100 % of control; under setting [3], 100 % of control; under setting [4], 90 % of control.
Turning to `NC(Cc1ccc(N(CCCl)CCCl)cc1)C(=O)O` (stereo unspecified), the T/C was 188 % of control and 190 % of control under setting [7]; 165 % of control and 224 % of control under setting [8]; 160 % of control under setting [11]; 168 % of control under setting [9]; 105 % of control and 110 % of control under setting [17]; 100 % of control and 108 % of control under setting [21]. Also, the T/C under setting [12] was 95 % of control.
In the case of `CN(C)/N=N/c1nc[nH]c1C(N)=O`, the T/C under setting [16] is 155 % of control.
With `Nc1nc2n[nH]nc2c(=O)[nH]1`, the T/C runs as follows: (dose: 25.0 mg/kg/injection, schedule: Q01DX010 (ip), vehicle: alkali diluted with saline) 115 % of control; (dose: 50.0 mg/kg/injection, schedule: Q01DX010 (ip), vehicle: alkali diluted with saline) 88 % of control and 110 % of control.
Regarding `N=C(N)c1ccc(Nc2ccc(C(=N)N)cc2)cc1`, the T/C runs as follows: (dose: 3.0 mg/kg/injection, schedule: Q01DX010 (ip), vehicle: saline) 100 % of control; under setting [22], 90 % of control and 100 % of control; under setting [23], 100 % of control and 110 % of control; (dose: 24.0 mg/kg/injection, schedule: Q01DX010 (ip), vehicle: saline) 100 % of control.
As for `CS(=O)(=O)OCCCCOS(C)(=O)=O`, the T/C was 86 % of control and 100 % of control under setting [19]; 100 % of control under setting [20]; 90 % of control under setting [18]; 95 % of control under setting [13].
Consider `O=C(Nc1ccc(C2=NCCN2)cc1)c1ccc(C(=O)Nc2ccc(C3=NCCN3)cc2)c([N+](=O)[O-])c1`, for which the T/C under setting [22] was 116 % of control, the T/C under setting [9] was 116 % of control and the T/C under setting [23] was 116 % of control.
As for `CC(=O)NC1=C(N2CC2)C(=O)C(NC(C)=O)=C(N2CC2)C1=O`, the T/C is 109 % of control under setting [24]; 177 % of control and 188 % of control under setting [5]; 109 % of control and 111 % of control under setting [6].
As for `Oc1cc(CN(CCCl)CCCl)c(O)cc1CN(CCCl)CCCl`, the T/C (dose: 0.63 mg/kg/injection, schedule: Q01DX010 (ip), vehicle: saline) is 120 % of control.
`Nc1nc(SCc2ccccc2)c2[nH]cnc2n1`: the T/C runs as follows: under setting [9], 90 % of control; under setting [21], 90 % of control.
Turning to `C1CN1c1nc(N2CC2)nc(N2CC2)n1`, the T/C is, setting by setting: under setting [24], 180 % of control; (dose: 0.25 mg/kg/injection, schedule: Q01DX010 (ip), vehicle: saline) 152 % of control; under setting [5], 96 % of control; under setting [6], 95 % of control.
For `CCOC(=O)NP(=O)(N1CC1)N1CC1`, the T/C reads like this: under setting [10], 111 % of control and 116 % of control; under setting [11], 116 % of control and 122 % of control; under setting [17], 122 % of control.
For `N#[N+]c1cnc([O-])[nH]c1=O`, under setting [11], the T/C was 157 % of control.
